Patent US8058475B2, “Substituted cyclohexylmethyl compounds” (Gruenenthal GmbH, priority 2005, dated 2011)
Where two headings read alike, the source gives them in different places.

Target: human μ-opiate receptor (Homo sapiens, UniProt P35372)
Experiment: Affinity for the human μ-opiate receptor ([3H]-naloxone displacement, SPA, CHO-K1 membrane preparation)
Type: binding
Conditions: for inhibition at 1 µM: read-out: μ-Opioid receptor, % inhibition [1 μM]; for Ki: read-out: μ-Opioid receptor, Ki
[1] = 1 μM test substance, inhibition of specific [3H]-naloxone binding

human μ-opiate receptor, sequence (P35372 whole entry): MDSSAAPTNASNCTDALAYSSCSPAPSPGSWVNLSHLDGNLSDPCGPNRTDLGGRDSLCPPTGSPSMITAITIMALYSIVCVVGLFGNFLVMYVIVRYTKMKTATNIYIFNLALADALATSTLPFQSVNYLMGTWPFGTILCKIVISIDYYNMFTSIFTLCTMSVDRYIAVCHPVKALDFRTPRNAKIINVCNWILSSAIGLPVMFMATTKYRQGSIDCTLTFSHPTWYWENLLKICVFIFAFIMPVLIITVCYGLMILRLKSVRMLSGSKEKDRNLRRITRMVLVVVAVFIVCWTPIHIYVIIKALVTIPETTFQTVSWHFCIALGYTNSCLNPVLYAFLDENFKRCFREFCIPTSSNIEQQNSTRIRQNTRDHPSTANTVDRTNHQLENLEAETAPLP

Q: For CN(C)C(c1ccccc1)C1CCC(CCNC(=O)c2ccc(C#N)cc2)CC1 (stereo not shown) [compound 421, 4-cyano-N-{2-[4-(dimethylamino-phenyl-methyl)-cyclohexyl]-ethyl}-benzamide], which inhibition at 1 µM is on record?
A: 80%

Q: What about the Ki of the same compound?
A: 91 nM

Q: For CN(C)C(c1ccccc1)C1CCC(NC(=O)c2cccs2)CC1 (single isomer, unassigned) [compound 249, thiophene-2-carboxylic acid [4-(dimethylamino-phenyl-methyl)-cyclohexyl]-amide], which “μ-Opioid receptor, % inhibition [1 μM]” value is on record?
A: 81%

Q: What about the Ki of the same compound?
A: 64 nM

Q: What does the source list for CCSc1ncccc1C(=O)NCC1CCC(C(c2cccc(F)c2)N(C)C)CC1 (stereo not shown) [compound 388, N-{4-[dimethylamino-(3-fluoro-phenyl)-methyl]-cyclohexylmethyl}-2-ethylsulfanyl-nicotinamide]?
A: inhibition at 1 µM: 81%; Ki: 36 nM

Q: For CC(Oc1ccccc1)C(=O)NC1CCC(C(c2ccccc2)N(C)C)CC1 (stereo not shown) [compound 230, N-[4-(dimethylamino-phenyl-methyl)-cyclohexyl]-2-phenoxy-propionamide], which inhibition at 1 µM is on record?
A: 86%

Q: What about the Ki of the same compound?
A: 21 nM

Q: Which results are given for CCSc1ncccc1C(=O)NC1CCC(C(c2cccs2)N(C)C)CC1 (stereo not shown) [compound 213, N-[4-(dimethylamino-thiophen-2-yl-methyl)-cyclohexyl]-2-ethylsulfanyl-nicotinamide]?
A: inhibition at 1 µM: 91%; Ki: 96 nM

Q: With CN(C)C(c1ccc(Cl)cc1)C1CCC(O)(c2ccc(F)cc2)CC1 (stereo not shown) [compound 162, 4-[(4-chloro-phenyl)-dimethylamino-methyl]-1-(4-fluoro-phenyl)-cyclohexanol] as the compound, how does the inhibition at 1 µM [1] read?
A: 59%

Q: What does the source list for CN(C)C(c1cccc(F)c1)C1CCC(CNC(=O)Cc2ccccc2)CC1 (single isomer, unassigned) [compound 319, N-{4-[dimethylamino-(3-fluoro-phenyl)-methyl]-cyclohexylmethyl}-2-phenyl-acetamide]?
A: inhibition at 1 µM: 95%; Ki: 15 nM

Q: What does the source list for CN(C)C(c1ccc(F)cc1)C1CCC(CCNC(=O)c2ccc3ccccc3c2)CC1 (stereo not shown) [compound 442, naphthalene-2-carboxylic acid (2-{4-[dimethylamino-(4-fluoro-phenyl)-methyl]-cyclohexyl}-ethyl)-amide]?
A: inhibition at 1 µM: 86%; Ki: 110 nM

Q: What does the source list for CN(C)C(c1ccccc1)C1CCC(CCNC(=O)c2ccccc2Cl)CC1 (stereo not shown) [compound 402, 2-chloro-N-{2-[4-(dimethylamino-phenyl-methyl)-cyclohexyl]-ethyl}-benzamide]?
A: inhibition at 1 µM: 96%; Ki: 7.9 nM

Q: Which results are given for CN(C)C(c1ccccc1)C1CCC(CCNC(=O)C(c2ccccc2)c2ccccc2)CC1 (stereo not shown) [compound 448, N-{2-[4-(dimethylamino-phenyl-methyl)-cyclohexyl]-ethyl}-2,2-diphenyl-acetamide]?
A: inhibition at 1 µM: 95%; Ki: 33 nM

Q: CC(Oc1ccccc1)C(=O)NC1CCC(C(c2cccc(F)c2)N(C)C)CC1 (single isomer, unassigned) [compound 215, N-{4-[dimethylamino-(3-fluoro-phenyl)-methyl]-cyclohexyl}-2-phenoxy-propionamide] was tested. Which inhibition at 1 µM did it give?
A: 90%

Q: What about the Ki of the same compound?
A: 34 nM

Q: What does the source list for CN(C)C(c1ccccc1)C1CCC(CCNC(=O)c2ccc(Cl)c(Cl)c2)CC1 (stereo not shown) [compound 416, 3,4-dichloro-N-{2-[4-(dimethylamino-phenyl-methyl)-cyclohexyl]-ethyl}-benzamide]?
A: inhibition at 1 µM: 86%; Ki: 19 nM

Q: CN(C)C(CCc1ccccc1)C1CCC(NC(=O)c2cc(F)ccc2F)CC1 (stereo not shown) [compound 276, N-[4-(1-dimethylamino-3-phenyl-propyl)-cyclohexyl]-2,5-difluoro-benzamide] was tested. Which inhibition at 1 µM did it give?
A: 74%

Q: And the Ki?
A: 65 nM

Q: What does the source list for CN(C)C(c1cccs1)C1CCC(CNC(=O)C(c2ccccc2)c2ccccc2)CC1 (stereo not shown) [compound 297, N-[4-(dimethylamino-thiophen-2-yl-methyl)-cyclohexylmethyl]-2,2-diphenyl-acetamide]?
A: inhibition at 1 µM: 100%; Ki: 4 nM

Q: Which inhibition at 1 µM does the source give for CC(Oc1ccccc1)C(=O)NCC1CCC(C(c2cccc(F)c2)N(C)C)CC1 (stereo not shown) [compound 346, N-{4-[dimethylamino-(3-fluoro-phenyl)-methyl]-cyclohexylmethyl}-2-phenoxy-propionamide] here?
A: 90%

Q: What about the Ki of the same compound?
A: 65 nM

Q: What does the source list for CN(C)C(c1ccc(Cl)cc1)C1CCC(CCNC(=O)c2ccccc2Cl)CC1 (stereo not shown) [compound 403, 2-chloro-N-(2-{4-[(4-chloro-phenyl)-dimethylamino-methyl]-cyclohexyl}-ethyl)-benzamide]?
A: inhibition at 1 µM: 81%; Ki: 74 nM

Q: How did the inhibition at 1 µM turn out when CSc1ncccc1C(=O)NCC1CCC(C(c2ccccc2)N(C)C)CC1 (stereo not shown) [compound 299, N-[4-(dimethylamino-phenyl-methyl)-cyclohexylmethyl]-2-methylsulfanyl-nicotinamide] was run?
A: 100%

Q: And the Ki?
A: 1 nM

Q: For CN(C)C(c1cccc(F)c1)C1CCC(NC(=O)Cc2ccc(Cl)cc2)CC1 (stereo not shown) [compound 274, 2-(4-chloro-phenyl)-N-{4-[dimethylamino-(3-fluoro-phenyl)-methyl]-cyclohexyl}-acetamide], which inhibition at 1 µM is on record?
A: 74%

Q: And the Ki?
A: 99 nM

Q: With CN(C)C(c1ccccc1)C1CCC(CNC(=O)C2(c3ccc(Cl)cc3)CCCC2)CC1 (stereo not shown) [compound 318, 1-(4-chloro-phenyl)-cyclopentane-carboxylic acid [4-(dimethylamino-phenyl-methyl)-cyclohexylmethyl]-amide] as the compound, how does the inhibition at 1 µM read?
A: 95%

Q: What about the Ki of the same compound?
A: 23 nM

Q: For CN(C)C(c1ccccc1)C1CCC(CCNC(=O)c2c(F)c(F)c(F)c(F)c2F)CC1 (stereo not shown) [compound 460, N-{2-[4-(dimethylamino-phenyl-methyl)-cyclohexyl]-ethyl}-2,3,4,5,6-pentafluoro-benzamide], which inhibition at 1 µM is on record?
A: 97%

Q: What about the Ki of the same compound?
A: 9.5 nM

Q: CN(C)C(c1ccc(Cl)cc1)C1CCC(CCNC(=O)c2cccnc2Cl)CC1 (stereo not shown) [compound 441, 2-chloro-N-(2-{4-[(4-chloro-phenyl)-dimethylamino-methyl]-cyclohexyl}-ethyl)-nicotinamide] was tested. Which inhibition at 1 µM did it give?
A: 83%

Q: And the Ki?
A: 200 nM

Q: For CN(C)C(c1ccc(Cl)cc1)C1CCC(CCNC(=O)c2cccc(Cl)c2)CC1 (stereo not shown) [compound 399, 3-chloro-N-(2-{4-[(4-chloro-phenyl)-dimethylamino-methyl]-cyclohexyl}-ethyl)-benzamide], which inhibition at 1 µM is on record?
A: 80%

Q: What about the Ki of the same compound?
A: 110 nM

Q: For CN(C)C(c1ccccc1)C1CCC(NC(=O)c2cc(F)cc(C(F)(F)F)c2)CC1 (stereo not shown) [compound 190, N-[4-(dimethylamino-phenyl-methyl)-cyclohexyl]-3-fluoro-5-trifluoromethyl-benzamide], which inhibition at 1 µM is on record?
A: 99%

Q: And the Ki?
A: 25 nM

Q: For CC(Oc1ccccc1)C(=O)NCC1CCC(C(c2cccc(F)c2)N(C)C)CC1 (single isomer, unassigned) [compound 341, N-{4-[dimethylamino-(3-fluoro-phenyl)-methyl]-cyclohexylmethyl}-2-phenoxy-propionamide], which Ki is on record?
A: 13 nM

Q: For CN(C)C(c1cccc(F)c1)C1CCC(NC(=O)Cc2ccccc2)CC1 (stereo not shown) [compound 240, N-{4-[dimethylamino-(3-fluoro-phenyl)-methyl]-cyclohexyl}-2-phenyl-acetamide], which inhibition at 1 µM is on record?
A: 82%

Q: And the Ki?
A: 51 nM

Q: What does the source list for CN(C)C(c1ccc(F)cc1)C1CCC(NC(=O)c2ccc(F)c(Cl)c2)CC1 (stereo not shown) [compound 280, 3-chloro-N-{4-[dimethylamino-(4-fluoro-phenyl)-methyl]-cyclohexyl}-4-fluoro-benzamide]?
A: inhibition at 1 µM: 73%; Ki: 310 nM

Q: How did the inhibition at 1 µM [1] turn out when CN(C)C(c1cccc(F)c1)C1CCC(O)(c2ccc(Cl)c(C(F)(F)F)c2)CC1 (stereo not shown) [compound 157, 1-(4-chloro-3-trifluoromethyl-phenyl)-4-[dimethylamino-(3-fluoro-phenyl)-methyl]-cyclohexanol] was run?
A: 72%

Q: Which results are given for COc1ccccc1C(=O)NCCC1CCC(C(c2ccc(F)cc2)N(C)C)CC1 (stereo not shown) [compound 432, N-(2-{4-[dimethylamino-(4-fluoro-phenyl)-methyl]-cyclohexyl}-ethyl)-2-methoxy-benzamide]?
A: inhibition at 1 µM: 95%; Ki: 18 nM

Q: What does the source list for Cc1ccccc1C(=O)NCCC1CCC(C(c2cccc(F)c2)N(C)C)CC1 (stereo not shown) [compound 420, N-(2-{4-[dimethylamino-(3-fluoro-phenyl)-methyl]-cyclohexyl}-ethyl)-2-methyl-benzamide]?
A: inhibition at 1 µM: 94%; Ki: 16 nM

Q: Which inhibition at 1 µM does the source give for COc1cccc(CC(=O)NCC2CCC(C(c3ccccc3)N(C)C)CC2)c1 (stereo not shown) [compound 349, N-[4-(dimethylamino-phenyl-methyl)-cyclohexylmethyl]-2-(3-methoxy-phenyl)-acetamide] here?
A: 89%

Q: And the Ki?
A: 50 nM

Q: What does the source list for Cc1ccc(Oc2ncccc2C(=O)NCC2CCC(C(c3cccs3)N(C)C)CC2)cc1 (single isomer, unassigned) [compound 389, N-[4-(dimethylamino-thiophen-2-yl-methyl)-cyclohexylmethyl]-2-p-tolyloxy-nicotinamide]?
A: inhibition at 1 µM: 81%; Ki: 58 nM

Q: Which inhibition at 1 µM does the source give for CN(C)C(c1ccc(Cl)cc1)C1CCC(CCNC(=O)c2ccc(F)c(F)c2)CC1 (stereo not shown) [compound 445, N-(2-{4-[(4-chloro-phenyl)-dimethylamino-methyl]-cyclohexyl}-ethyl)-3,4-difluoro-benzamide] here?
A: 86%

Q: And the Ki?
A: 69 nM

Q: Which “μ-Opioid receptor, % inhibition [1 μM]” value [1] does the source give for COC(=O)C(Cc1c[nH]c2ccccc12)NC1CCC(C(c2ccccc2)N(C)C)CC1 (single isomer, unassigned) [compound 175, methyl 2-(4-((dimethylamino)(phenyl)methyl)cyclohexylamino)-3-(1H-indol-3-yl)propanoate] here?
A: 86%

Q: And the Ki?
A: 11 nM

Q: What does the source list for CN(C)C(c1ccccc1)C1CCC(NC(=O)COCc2ccccc2)CC1 (stereo not shown) [compound 254, 2-benzyloxy-N-[4-(dimethylamino-phenyl-methyl)-cyclohexyl]-acetamide]?
A: inhibition at 1 µM: 80%; Ki: 56 nM

Q: What does the source list for CN(C)C(c1ccccc1)C1CCC(NC(=O)c2cncc(Br)c2)CC1 (stereo not shown) [compound 235, 5-bromo-N-[4-(dimethylamino-phenyl-methyl)-cyclohexyl]-nicotinamide]?
A: inhibition at 1 µM: 84%; Ki: 61 nM
